This is an account of results in ChEMBL document CHEMBL5113390, “Design, synthesis and antitumor evaluation of novel 1H-indole-2-carboxylic acid derivatives targeting 14-3-3η protein” (Eur J Med Chem, 2022).

What is called IC50 is the point on the concentration scale where inhibition reaches its midpoint.

Data set [1] in a line: Metabolic stability in rat liver microsomes assessed as intrinsic clearance. To be noted: read-out: CLH. It counts as ADME, Microsome. In general terms: Microsomes from liver hold many membrane-bound enzymes, among them those of drug oxidation.
In data set [2] the test system is hERG. The data set can be described thus: Selectivity ratio of IC50 for inhibition of hERG by automated patch clamp analysis to IC50 for antiproliferative activity against human BEL-7402/5-FU cells assessed as reduction in cell viability incubated for 72 hrs by MTT assay. The data set is classed as toxicity, cell-based. To be noted: read-out: Ratio IC50. (In general: The hERG channel carries a current that helps repolarise heart muscle cells.)

Data set [3] has as its system Hep 3B2. The data set can be described thus: Induction of cell cycle arrest in human Hep3B cells assessed as accumulation at G2/M phase at 5 uM incubated for 48 hrs by flow cytometry analysis (reference value: 8.59 %). It counts as functional. Background: In flow cytometry, cells or beads pass a laser one at a time.
Data set [4] concerns Hep 3B2. The data set can be described thus: Induction of cell cycle arrest in human Hep3B cells assessed as accumulation at S phase at 10 uM incubated for 48 hrs by flow cytometry analysis (reference value: 30.56 %). The data set is classed as functional.
Data set [5] concerns Hep 3B2. The data set can be described thus: Induction of apoptosis in human Hep3B cells assessed as necrotic cells at 10 uM measured after 48 hrs by Annexin V/FITC-PI staining based flow cytometry assay (reference value: 0.12%). The data set is classed as functional.
Data set [6] concerns Hep 3B2. The data set can be described thus: Induction of apoptosis in human Hep3B cells assessed as late apoptotic cells at 5 uM measured after 48 hrs by Annexin V/FITC-PI staining based flow cytometry assay (reference value: 3.14%). The data set is classed as functional.
Data set [7] concerns the target T1, 14-3-3 protein eta (Homo sapiens) (UniProt Q04917).
T1 sequence (whole entry): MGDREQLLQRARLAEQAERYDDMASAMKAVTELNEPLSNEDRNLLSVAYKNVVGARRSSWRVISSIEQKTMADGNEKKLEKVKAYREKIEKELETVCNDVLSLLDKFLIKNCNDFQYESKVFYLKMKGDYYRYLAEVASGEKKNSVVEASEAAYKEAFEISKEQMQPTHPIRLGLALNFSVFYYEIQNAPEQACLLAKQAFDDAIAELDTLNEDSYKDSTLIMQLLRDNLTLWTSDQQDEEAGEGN
The data set can be described thus: Inhibition of 14-3-3 eta in human Hep3B cells assessed as reduction in ERK phosphorylation measured after 24 hrs by western blot analysis. It counts as cell-based. Particulars: dose 0.5-5 µM, DDE = dose-dependent effect.

The test system of data set [8] is Hep 3B2. In words: Induction of apoptosis in human Hep3B cells assessed as upregulation of cleaved PARP expression at 5 to 20 uM measured after 48 hrs by Western blot analysis. The data set is classed as functional, cell-based. To be noted: dose 5-20 µM.
The test system of data set [9] is hERG. In words: Selectivity ratio of IC50 for inhibition of hERG by automated patch clamp analysis to IC50 for antiproliferative activity against human HepG2 cells assessed as reduction in cell viability incubated for 72 hrs by MTT assay. It counts as toxicity, cell-based. Particulars: read-out: Ratio IC50.
In data set [10] the test system is Hep 3B2. In words: Induction of cell cycle arrest in human Hep3B cells assessed as accumulation at G2/M phase at 2.5 uM incubated for 48 hrs by flow cytometry analysis (reference value: 8.59 %). It counts as functional.
In data set [11] the test system is hERG. The data set can be described thus: Selectivity ratio of IC50 for inhibition of hERG by automated patch clamp analysis to IC50 for antiproliferative activity against human Hep3B cells assessed as reduction in cell viability incubated for 72 hrs by MTT assay. Particulars: read-out: Ratio IC50. The data set is classed as toxicity, cell-based.
The test system of data set [12] is hERG. The data set can be described thus: Selectivity ratio of IC50 for inhibition of hERG by automated patch clamp analysis to IC50 for antiproliferative activity against human SNU-387 cells assessed as reduction in cell viability incubated for 72 hrs by MTT assay. The data set is classed as toxicity, cell-based. To be noted: read-out: Ratio IC50.
The test system of data set [13] is Hep 3B2. The data set can be described thus: Induction of cell cycle arrest in human Hep3B cells assessed as accumulation at G2/M phase at 1 uM incubated for 48 hrs by flow cytometry analysis (reference value: 8.59 %). The data set is classed as functional.
In data set [14] the test system is Hep 3B2. In words: Induction of cell cycle arrest in human Hep3B cells assessed as accumulation at G0/G1 phase at 1 uM incubated for 48 hrs by flow cytometry analysis (reference value: 60.85 %). The data set is classed as functional.
Data set [15] concerns Hep 3B2. In words: Induction of apoptosis in human Hep3B cells assessed as early apoptotic cells at 5 uM measured after 48 hrs by Annexin V/FITC-PI staining based flow cytometry assay (reference value: 6.65%). The data set is classed as functional.
In data set [16] the test system is Hep 3B2. The data set can be described thus: Antiproliferative activity against human Hep3B cells assessed as reduction in cell viability incubated for 72 hrs by MTT assay. It counts as functional, cell-based.
The subject of a further data set is Bel7402/5-FU. In words: Antiproliferative activity against human BEL-7402/5-FU cells overexpressing 14-3-3 eta assessed as reduction in cell viability incubated for 72 hrs by MTT assay. The data set is classed as functional, cell-based.
Data set [17] has as its system Hep 3B2. In words: Induction of apoptosis in human Hep3B cells assessed as early apoptotic cells at 10 uM measured after 48 hrs by Annexin V/FITC-PI staining based flow cytometry assay (reference value: 6.65%). The data set is classed as functional.
The subject of another data set is HepG2. In words: Antiproliferative activity against human HepG2 cells assessed as reduction in cell viability incubated for 72 hrs by MTT assay. To be noted: HepG2, 72 h. It counts as functional, cell-based.
Data set [18] has as its system Hep 3B2. In words: Induction of cell cycle arrest in human Hep3B cells assessed as accumulation at G0/G1 phase at 10 uM incubated for 48 hrs by flow cytometry analysis (reference value: 60.85 %). It counts as functional.
For data set [19], the target named is Voltage-gated inwardly rectifying potassium channel KCNH2 (Homo sapiens, UniProt Q12809). The data set can be described thus: Inhibition of hERG by automated patch clamp analysis. It counts as toxicity.

SMILES strings stand for the structures. The source made the active and inactive calls. The calls are words filed in the database; no cut-off is given here.

Sequence of Voltage-gated inwardly rectifying potassium channel KCNH2 (Q12809 whole entry): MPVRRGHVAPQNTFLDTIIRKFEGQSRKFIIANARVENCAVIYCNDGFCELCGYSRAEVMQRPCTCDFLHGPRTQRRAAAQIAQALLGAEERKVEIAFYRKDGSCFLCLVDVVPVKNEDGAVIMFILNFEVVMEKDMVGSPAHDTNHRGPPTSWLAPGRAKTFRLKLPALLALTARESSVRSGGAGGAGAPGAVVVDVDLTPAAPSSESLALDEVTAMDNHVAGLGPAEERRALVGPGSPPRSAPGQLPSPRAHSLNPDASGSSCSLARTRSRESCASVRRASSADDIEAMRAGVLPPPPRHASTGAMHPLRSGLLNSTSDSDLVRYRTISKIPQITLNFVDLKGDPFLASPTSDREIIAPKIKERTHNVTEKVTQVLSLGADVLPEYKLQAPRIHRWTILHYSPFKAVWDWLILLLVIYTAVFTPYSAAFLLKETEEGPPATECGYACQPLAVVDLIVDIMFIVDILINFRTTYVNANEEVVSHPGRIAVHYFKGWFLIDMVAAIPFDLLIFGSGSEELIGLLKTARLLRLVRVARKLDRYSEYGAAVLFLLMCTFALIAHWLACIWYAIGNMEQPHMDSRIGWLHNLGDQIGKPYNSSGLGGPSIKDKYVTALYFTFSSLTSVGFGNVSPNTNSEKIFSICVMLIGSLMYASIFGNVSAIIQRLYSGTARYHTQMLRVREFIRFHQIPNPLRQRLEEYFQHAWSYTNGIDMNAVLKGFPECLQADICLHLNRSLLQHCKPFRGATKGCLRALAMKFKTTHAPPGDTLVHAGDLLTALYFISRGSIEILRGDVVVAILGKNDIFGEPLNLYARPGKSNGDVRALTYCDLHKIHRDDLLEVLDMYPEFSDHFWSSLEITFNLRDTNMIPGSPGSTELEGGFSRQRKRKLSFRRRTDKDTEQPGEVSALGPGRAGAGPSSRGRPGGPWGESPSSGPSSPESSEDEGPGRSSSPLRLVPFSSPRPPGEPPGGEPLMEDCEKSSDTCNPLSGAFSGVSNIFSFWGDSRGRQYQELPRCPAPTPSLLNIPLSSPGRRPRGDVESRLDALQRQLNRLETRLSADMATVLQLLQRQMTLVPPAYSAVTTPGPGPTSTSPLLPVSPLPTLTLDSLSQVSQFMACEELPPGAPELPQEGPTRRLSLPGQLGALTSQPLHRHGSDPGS

Take `COc1cccc(CNCc2c(C(=O)O)n(Cc3ccc(C)cc3)c3cc(C(C)C)ccc23)c1`: the CLint scaled in data set [1] came to 269 mL/min/kg. For the same molecule, the selectivity ratio at 72 h amounted to 5.84 in the data set on hERG [2], 10.1 in the data set with hERG [9], 8.5 in the data set on hERG [11] and 6.32 in the data set on hERG [12]. For the same molecule, the Activity worked out at 3.79% with Hep 3B2 [3]; 29.71% with Hep 3B2 [4]; 2.82% in the data set on Hep 3B2 [5]; 7.79% in the data set on Hep 3B2 [6]; 4.47% in the data set on Hep 3B2 [10]; 5.79% with Hep 3B2 [13]. The Activity with Hep 3B2 [14] was 58.63%; in the data set on Hep 3B2 [15], 11.22%; with Hep 3B2 [17], 21.73%; in the data set on Hep 3B2 [18], 67.7%. For the same molecule, in data set [7], the inhibition result was “Dde”. The result with Hep 3B2 [8] was Active. Further, the IC50 was found to be 4.07 µM in the data set on Hep 3B2 [16], 4.55 µM in the data set with Bel7402/5-FU, 3.43 µM in the data set with HepG2 and 34.6 µM in [19].
